Measured values reported in US20260356819A1, “OXOISOINDOLINYL-SUBSTITUTED […] DERIVATIVE AND USE THEREOF” (GLUETACS THERAPEUTICS (SHANGHAI) CO., LTD., priority 2023, published 2026).

Columns and labels:
Assay type in all cases: cell-based
Settings in all cases: compounds at 50 nM and 500 nM
IKZF2 = target: T1, IKZF2 (Homo sapiens, UniProt Q96SW2+Q9UKS7); test: Western blot degradation of IKZF2 in hPBMCs (24 h)
T1 construct: The supernatant was aspirated as the extracted total cell protein; endogenous in cells; host or cells: human peripheral blood mononuclear cells (hPBMCs)
Procedure, shortened: (§1)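 In this assay, each compound was incubated with human PBMCs for 24 h at 50 nM and 500 nM. Target levels were measured by Western blot densitometry normalised to an internal control.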

IKZF3 = target: T2, IKZF3 (Homo sapiens, UniProt Q96SW2+Q9UKT9); test: Western blot degradation of IKZF3 in hPBMCs (24 h)
T2 construct: The supernatant was aspirated as the extracted total cell protein; endogenous in cells; host or cells: human peripheral blood mononuclear cells (hPBMCs)
Procedure, shortened: as §1

CK1α = target: T3, CK1α (Homo sapiens, UniProt P48729+Q96SW2); test: Western blot degradation of CK1α in hPBMCs (24 h)
T3 construct: The supernatant was aspirated as the extracted total cell protein; endogenous in cells; host or cells: human peripheral blood mononuclear cells (hPBMCs)
Procedure, shortened: as §1

WEE1 = target: T4, WEE1 (Homo sapiens, UniProt P30291+Q96SW2); test: Western blot degradation of WEE1 in hPBMCs (24 h)
T4 construct: The supernatant was aspirated as the extracted total cell protein; endogenous in cells; host or cells: human peripheral blood mononuclear cells (hPBMCs)
Procedure, shortened: as §1

GSPT1 = target: T5, GSPT1 (Homo sapiens, UniProt P15170+Q96SW2); test: Western blot degradation of GSPT1 in hPBMCs (24 h)
T5 construct: The supernatant was aspirated as the extracted total cell protein; endogenous in cells; host or cells: human peripheral blood mononuclear cells (hPBMCs)
Procedure, shortened: as §1

IKZF1 = target: T6, IKZF1 (Homo sapiens, UniProt Q13422+Q96SW2); test: Western blot degradation of IKZF1 in hPBMCs (24 h)
T6 construct: The supernatant was aspirated as the extracted total cell protein; endogenous in cells; host or cells: human peripheral blood mononuclear cells (hPBMCs)
Procedure, shortened: as §1

T6 sequence (Q13422 whole entry): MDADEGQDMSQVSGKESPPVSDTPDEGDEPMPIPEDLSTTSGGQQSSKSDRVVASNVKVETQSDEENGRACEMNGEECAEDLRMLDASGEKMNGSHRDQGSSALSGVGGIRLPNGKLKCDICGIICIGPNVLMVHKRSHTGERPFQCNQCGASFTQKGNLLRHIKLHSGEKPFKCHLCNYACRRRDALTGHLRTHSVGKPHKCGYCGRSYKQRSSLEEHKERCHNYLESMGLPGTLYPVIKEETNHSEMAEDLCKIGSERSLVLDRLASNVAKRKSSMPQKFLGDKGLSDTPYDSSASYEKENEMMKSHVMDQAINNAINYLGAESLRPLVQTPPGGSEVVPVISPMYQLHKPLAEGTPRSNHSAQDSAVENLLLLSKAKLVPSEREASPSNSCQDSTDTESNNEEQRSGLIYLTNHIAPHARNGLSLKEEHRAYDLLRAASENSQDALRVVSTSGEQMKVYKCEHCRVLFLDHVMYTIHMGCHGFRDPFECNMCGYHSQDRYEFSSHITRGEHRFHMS
T6 sequence (Q96SW2 whole entry): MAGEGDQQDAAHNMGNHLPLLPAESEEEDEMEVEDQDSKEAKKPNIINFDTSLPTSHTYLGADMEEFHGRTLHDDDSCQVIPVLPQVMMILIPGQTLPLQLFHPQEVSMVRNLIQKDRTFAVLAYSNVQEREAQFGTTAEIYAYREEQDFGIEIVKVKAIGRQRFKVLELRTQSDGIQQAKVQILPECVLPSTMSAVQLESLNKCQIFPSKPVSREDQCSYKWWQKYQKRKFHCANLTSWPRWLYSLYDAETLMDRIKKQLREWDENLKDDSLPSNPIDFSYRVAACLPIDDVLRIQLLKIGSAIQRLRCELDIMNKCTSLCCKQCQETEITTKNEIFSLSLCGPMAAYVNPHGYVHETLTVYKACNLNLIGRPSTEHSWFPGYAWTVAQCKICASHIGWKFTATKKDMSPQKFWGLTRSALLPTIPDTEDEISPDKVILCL
T6 sequence (Q16531 whole entry partner): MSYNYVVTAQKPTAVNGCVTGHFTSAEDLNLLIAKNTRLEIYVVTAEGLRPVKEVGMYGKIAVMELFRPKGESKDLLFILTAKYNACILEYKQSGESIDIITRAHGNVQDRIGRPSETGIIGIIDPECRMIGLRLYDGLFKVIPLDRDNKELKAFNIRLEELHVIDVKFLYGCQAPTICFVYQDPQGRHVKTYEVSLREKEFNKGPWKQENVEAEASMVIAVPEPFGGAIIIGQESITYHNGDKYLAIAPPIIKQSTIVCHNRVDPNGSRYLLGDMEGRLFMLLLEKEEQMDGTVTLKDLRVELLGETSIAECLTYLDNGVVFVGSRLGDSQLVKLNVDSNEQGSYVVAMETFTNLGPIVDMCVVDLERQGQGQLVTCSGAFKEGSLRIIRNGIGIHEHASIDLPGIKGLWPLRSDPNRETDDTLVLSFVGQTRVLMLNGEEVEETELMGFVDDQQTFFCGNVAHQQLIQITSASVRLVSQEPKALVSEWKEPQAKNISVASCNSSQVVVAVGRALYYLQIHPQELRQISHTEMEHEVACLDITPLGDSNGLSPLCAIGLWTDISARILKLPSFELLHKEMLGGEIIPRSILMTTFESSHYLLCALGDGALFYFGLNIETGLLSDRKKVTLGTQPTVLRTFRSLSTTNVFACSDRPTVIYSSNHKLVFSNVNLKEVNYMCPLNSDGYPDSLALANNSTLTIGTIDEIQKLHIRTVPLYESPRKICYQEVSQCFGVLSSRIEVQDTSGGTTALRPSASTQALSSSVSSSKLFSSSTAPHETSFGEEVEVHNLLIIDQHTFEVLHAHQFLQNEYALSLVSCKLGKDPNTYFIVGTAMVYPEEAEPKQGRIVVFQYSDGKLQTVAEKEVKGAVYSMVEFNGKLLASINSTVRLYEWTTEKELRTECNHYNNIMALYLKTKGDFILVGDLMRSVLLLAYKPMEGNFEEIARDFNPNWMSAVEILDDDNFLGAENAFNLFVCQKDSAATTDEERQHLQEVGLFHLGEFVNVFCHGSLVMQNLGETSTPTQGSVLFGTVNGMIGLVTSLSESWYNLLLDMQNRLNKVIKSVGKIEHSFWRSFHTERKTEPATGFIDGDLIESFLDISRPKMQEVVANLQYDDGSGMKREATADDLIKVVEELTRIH
T3 sequence (P48729 whole entry): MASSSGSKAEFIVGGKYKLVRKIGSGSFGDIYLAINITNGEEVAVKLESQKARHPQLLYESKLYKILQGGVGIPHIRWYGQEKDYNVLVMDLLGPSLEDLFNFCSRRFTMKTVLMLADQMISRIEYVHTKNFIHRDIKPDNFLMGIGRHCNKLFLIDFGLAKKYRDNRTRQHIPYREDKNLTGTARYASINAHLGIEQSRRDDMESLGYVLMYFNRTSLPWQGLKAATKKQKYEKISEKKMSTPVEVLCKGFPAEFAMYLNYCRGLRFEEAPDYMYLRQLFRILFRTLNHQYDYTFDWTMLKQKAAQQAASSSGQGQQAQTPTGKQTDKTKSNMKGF
T3 sequence (Q96SW2 whole entry): as the sequence (Q96SW2 whole entry) above
T3 sequence (Q16531 whole entry partner): as the sequence (Q16531 whole entry partner) above
T1 sequence (Q9UKS7 whole entry): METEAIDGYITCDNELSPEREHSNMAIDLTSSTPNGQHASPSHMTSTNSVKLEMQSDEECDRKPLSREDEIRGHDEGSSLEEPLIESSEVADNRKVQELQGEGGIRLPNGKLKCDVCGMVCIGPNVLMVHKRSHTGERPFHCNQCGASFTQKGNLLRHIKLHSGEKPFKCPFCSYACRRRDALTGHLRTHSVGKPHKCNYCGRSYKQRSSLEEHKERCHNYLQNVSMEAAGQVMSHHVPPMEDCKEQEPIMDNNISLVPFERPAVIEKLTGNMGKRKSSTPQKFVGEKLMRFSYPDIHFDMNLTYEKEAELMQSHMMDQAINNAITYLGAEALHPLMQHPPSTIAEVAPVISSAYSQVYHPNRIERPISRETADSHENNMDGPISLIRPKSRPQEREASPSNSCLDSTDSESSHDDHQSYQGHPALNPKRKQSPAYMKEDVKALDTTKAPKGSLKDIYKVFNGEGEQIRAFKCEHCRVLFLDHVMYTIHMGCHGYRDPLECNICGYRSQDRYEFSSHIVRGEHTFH
T1 sequence (Q96SW2 whole entry): as the sequence (Q96SW2 whole entry) above
T1 sequence (Q16531 whole entry partner): as the sequence (Q16531 whole entry partner) above
T5 sequence (P15170 whole entry): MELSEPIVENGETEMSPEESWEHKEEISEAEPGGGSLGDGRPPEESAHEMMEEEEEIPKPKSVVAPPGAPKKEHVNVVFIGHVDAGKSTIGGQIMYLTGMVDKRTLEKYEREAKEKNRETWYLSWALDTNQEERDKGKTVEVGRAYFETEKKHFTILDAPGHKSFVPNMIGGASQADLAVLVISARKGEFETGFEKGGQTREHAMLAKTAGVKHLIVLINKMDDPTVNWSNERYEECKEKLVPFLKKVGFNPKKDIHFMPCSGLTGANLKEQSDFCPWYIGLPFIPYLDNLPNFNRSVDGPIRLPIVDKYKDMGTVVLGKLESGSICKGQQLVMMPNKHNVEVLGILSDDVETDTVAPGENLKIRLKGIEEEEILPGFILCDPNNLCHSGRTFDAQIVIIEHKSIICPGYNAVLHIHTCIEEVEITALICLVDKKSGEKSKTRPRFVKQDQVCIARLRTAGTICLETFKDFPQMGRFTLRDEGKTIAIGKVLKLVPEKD
T5 sequence (Q96SW2 whole entry): as the sequence (Q96SW2 whole entry) above
T5 sequence (Q16531 whole entry partner): as the sequence (Q16531 whole entry partner) above
T2 sequence (Q9UKT9 whole entry): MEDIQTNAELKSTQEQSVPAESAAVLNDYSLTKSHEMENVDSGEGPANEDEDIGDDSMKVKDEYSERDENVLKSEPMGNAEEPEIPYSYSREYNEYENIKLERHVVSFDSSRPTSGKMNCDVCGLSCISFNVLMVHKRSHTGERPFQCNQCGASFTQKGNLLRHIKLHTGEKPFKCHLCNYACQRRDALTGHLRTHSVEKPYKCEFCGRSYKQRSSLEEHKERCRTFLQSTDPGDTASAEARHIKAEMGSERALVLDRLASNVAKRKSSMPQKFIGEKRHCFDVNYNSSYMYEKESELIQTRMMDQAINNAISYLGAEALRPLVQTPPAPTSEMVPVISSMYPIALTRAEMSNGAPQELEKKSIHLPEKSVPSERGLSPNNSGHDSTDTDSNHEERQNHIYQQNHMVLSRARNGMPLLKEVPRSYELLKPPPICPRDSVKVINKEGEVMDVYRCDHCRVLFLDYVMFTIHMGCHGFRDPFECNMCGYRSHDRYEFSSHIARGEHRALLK
T2 sequence (Q96SW2 whole entry): as the sequence (Q96SW2 whole entry) above
T2 sequence (Q16531 whole entry partner): as the sequence (Q16531 whole entry partner) above

CC1CN(Cc2ccc3c(c2)CN(N2CCC(=O)NC2=O)C3=O)CC(C)N1C(c1ccccc1)c1ccccc1 (stereo not drawn) [GT-06431, 1-(5-((4-benzhydryl-3,5-dimethylpiperazin-1-yl)methyl)-1-oxoisoindolin-2-yl)dihydropyrimidine-2,4(1H,3H)-dione]
IKZF2 substrate protein remaining % (IKZF2): A (0% ≤ substrate protein remaining % ≤80%) | IKZF3 substrate protein remaining % (IKZF3): B (80%< substrate protein remaining % ≤100%) | CK1α substrate protein remaining % (CK1α): B (80%< substrate protein remaining % ≤100%) | WEE1 substrate protein remaining % (WEE1): A (0% ≤ substrate protein remaining % ≤80%) | GSPT1 substrate protein remaining % (GSPT1): A (0% ≤ substrate protein remaining % ≤80%) | IKZF1 substrate protein remaining % (IKZF1): A (0% ≤ substrate protein remaining % ≤80%)

Cc1cc(C2=CCN(Cc3ccc4c(c3)C(=O)N(N3CCC(=O)NC3=O)C4=O)CC2)cs1 [GT-07423, 2-(2,4-dioxotetrahydropyrimidin-1(2H)-yl)-5-((4-(5-methylthiophen-3-yl)-3,6-dihydropyridin-1(2H)-yl)methyl)isoindoline-1,3-dione]
IKZF2 substrate protein remaining % (IKZF2): B (80%< substrate protein remaining % ≤100%) | IKZF3 substrate protein remaining % (IKZF3): A (0% ≤ substrate protein remaining % ≤80%) | CK1α substrate protein remaining % (CK1α): A (0% ≤ substrate protein remaining % ≤80%) | WEE1 substrate protein remaining % (WEE1): A (0% ≤ substrate protein remaining % ≤80%) | GSPT1 substrate protein remaining % (GSPT1): A (0% ≤ substrate protein remaining % ≤80%) | IKZF1 substrate protein remaining % (IKZF1): B (80%< substrate protein remaining % ≤100%)

O=C1CCN(N2C(=O)c3ccc(CN4CC(c5ccnc6cc(F)ccc56)C4)cc3C2=O)C(=O)N1 [GT-07718, 2-(2,4-dioxotetrahydropyrimidin-1(2H)-yl)-5-((3-(7-fluoroquinolin-4-yl)azetidin-1-yl)methyl)isoindoline-1,3-dione]
IKZF2 substrate protein remaining % (IKZF2): B (80%< substrate protein remaining % ≤100%) | IKZF3 substrate protein remaining % (IKZF3): A (0% ≤ substrate protein remaining % ≤80%) | CK1α substrate protein remaining % (CK1α): A (0% ≤ substrate protein remaining % ≤80%) | WEE1 substrate protein remaining % (WEE1): B (80%< substrate protein remaining % ≤100%) | GSPT1 substrate protein remaining % (GSPT1): A (0% ≤ substrate protein remaining % ≤80%) | IKZF1 substrate protein remaining % (IKZF1): B (80%< substrate protein remaining % ≤100%)

O=C1CCN(N2Cc3cc(CN4CCN(c5ncnc6sc(-c7ccccc7)cc56)CC4)ccc3C2=O)C(=O)N1 [GT-08064, 1-(1-oxo-5-((4-(6-phenylthieno[2,3-d]pyrimidin-4-yl)piperazin-1-yl)methyl)isoindolin-2-yl)dihydropyrimidine-2,4(1H,3H)-dione]
IKZF2 substrate protein remaining % (IKZF2): A (0% ≤ substrate protein remaining % ≤80%) | IKZF3 substrate protein remaining % (IKZF3): B (80%< substrate protein remaining % ≤100%) | CK1α substrate protein remaining % (CK1α): B (80%< substrate protein remaining % ≤100%) | WEE1 substrate protein remaining % (WEE1): B (80%< substrate protein remaining % ≤100%) | GSPT1 substrate protein remaining % (GSPT1): B (80%< substrate protein remaining % ≤100%) | IKZF1 substrate protein remaining % (IKZF1): B (80%< substrate protein remaining % ≤100%)

O=C1CCN(N2Cc3cc(CN4CCN(c5c(F)cccc5F)CC4)ccc3C2=O)C(=O)N1 [GT-06780, 1-(5-((4-(2,6-difluorophenyl)piperazin-1-yl)methyl)-1-oxoisoindolin-2-yl)dihydropyrimidine-2,4(1H,3H)-dione]
IKZF2 substrate protein remaining % (IKZF2): B (80%< substrate protein remaining % ≤100%) | IKZF3 substrate protein remaining % (IKZF3): B (80%< substrate protein remaining % ≤100%) | CK1α substrate protein remaining % (CK1α): A (0% ≤ substrate protein remaining % ≤80%) | WEE1 substrate protein remaining % (WEE1): B (80%< substrate protein remaining % ≤100%) | GSPT1 substrate protein remaining % (GSPT1): B (80%< substrate protein remaining % ≤100%) | IKZF1 substrate protein remaining % (IKZF1): B (80%< substrate protein remaining % ≤100%)

O=C1CCN(N2Cc3cc(CN4CCN(c5ncnc6sccc56)CC4)ccc3C2=O)C(=O)N1 [GT-08057, 1-(1-oxo-5-((4-(thieno[2,3-d]pyrimidin-4-yl)piperazin-1-yl)methyl)isoindolin-2-yl)dihydropyrimidine-2,4(1H,3H)-dione]
IKZF2 substrate protein remaining % (IKZF2): B (80%< substrate protein remaining % ≤100%) | IKZF3 substrate protein remaining % (IKZF3): B (80%< substrate protein remaining % ≤100%) | CK1α substrate protein remaining % (CK1α): B (80%< substrate protein remaining % ≤100%) | WEE1 substrate protein remaining % (WEE1): B (80%< substrate protein remaining % ≤100%) | GSPT1 substrate protein remaining % (GSPT1): A (0% ≤ substrate protein remaining % ≤80%) | IKZF1 substrate protein remaining % (IKZF1): A (0% ≤ substrate protein remaining % ≤80%)

O=C1CCN(N2C(=O)c3ccc(CN4CCN(c5nccc(I)c5F)CC4)cc3C2=O)C(=O)N1 [GT-06970, 2-(2,4-dioxotetrahydropyrimidin-1(2H)-yl)-5-((4-(3-fluoro-4-iodopyridin-2-yl)piperazin-1-yl)methyl)isoindoline-1,3-dione]
IKZF2 substrate protein remaining % (IKZF2): A (0% ≤ substrate protein remaining % ≤80%) | IKZF3 substrate protein remaining % (IKZF3): B (80%< substrate protein remaining % ≤100%) | CK1α substrate protein remaining % (CK1α): B (80%< substrate protein remaining % ≤100%) | WEE1 substrate protein remaining % (WEE1): A (0% ≤ substrate protein remaining % ≤80%) | GSPT1 substrate protein remaining % (GSPT1): B (80%< substrate protein remaining % ≤100%) | IKZF1 substrate protein remaining % (IKZF1): B (80%< substrate protein remaining % ≤100%)

O=C1CCN(N2C(=O)c3ccc(CN4CC=C(c5ncnc6sc7c(c56)CCCC7)CC4)cc3C2=O)C(=O)N1 [GT-08433, 2-(2,4-dioxotetrahydropyrimidin-1(2H)-yl)-5-((4-(5,6,7,8-tetrahydrobenzo[4,5]thieno[2,3-d]pyrimidin-4-yl)-3,6-dihydropyridin-1(2H)-yl)methyl)isoindoline-1,3-dione]
IKZF2 substrate protein remaining % (IKZF2): B (80%< substrate protein remaining % ≤100%) | IKZF3 substrate protein remaining % (IKZF3): A (0% ≤ substrate protein remaining % ≤80%) | CK1α substrate protein remaining % (CK1α): A (0% ≤ substrate protein remaining % ≤80%) | WEE1 substrate protein remaining % (WEE1): B (80%< substrate protein remaining % ≤100%) | GSPT1 substrate protein remaining % (GSPT1): A (0% ≤ substrate protein remaining % ≤80%) | IKZF1 substrate protein remaining % (IKZF1): B (80%< substrate protein remaining % ≤100%)

O=C1CCN(N2Cc3cc(CN4CC=C(c5ncccc5F)CC4)ccc3C2=O)C(=O)N1 [GT-06395, 1-(5-((3-fluoro-3′,6′-dihydro-[2,4′-bipyridin]-1′ (2′H)-yl)methyl)-1-oxoisoindolin-2-yl)dihydropyrimidine-2,4(1H,3H)-dione]
IKZF2 substrate protein remaining % (IKZF2): B (80%< substrate protein remaining % ≤100%) | IKZF3 substrate protein remaining % (IKZF3): B (80%< substrate protein remaining % ≤100%) | CK1α substrate protein remaining % (CK1α): A (0% ≤ substrate protein remaining % ≤80%) | WEE1 substrate protein remaining % (WEE1): B (80%< substrate protein remaining % ≤100%) | GSPT1 substrate protein remaining % (GSPT1): A (0% ≤ substrate protein remaining % ≤80%) | IKZF1 substrate protein remaining % (IKZF1): B (80%< substrate protein remaining % ≤100%)

O=C1CCN(N2C(=O)c3ccc(CN4CCC(c5ccsc5)CC4)cc3C2=O)C(=O)N1 [GT-07420, 2-(2,4-dioxotetrahydropyrimidin-1(2H)-yl)-5-((4-(thiophen-3-yl)piperidin-1-yl)methyl)isoindoline-1,3-dione]
IKZF2 substrate protein remaining % (IKZF2): B (80%< substrate protein remaining % ≤100%) | IKZF3 substrate protein remaining % (IKZF3): B (80%< substrate protein remaining % ≤100%) | CK1α substrate protein remaining % (CK1α): A (0% ≤ substrate protein remaining % ≤80%) | WEE1 substrate protein remaining % (WEE1): B (80%< substrate protein remaining % ≤100%) | GSPT1 substrate protein remaining % (GSPT1): A (0% ≤ substrate protein remaining % ≤80%) | IKZF1 substrate protein remaining % (IKZF1): B (80%< substrate protein remaining % ≤100%)

Cc1ccc(N2CCN(Cc3ccc4c(c3)CN(N3CCC(=O)NC3=O)C4=O)CC2)c(C)c1 [GT-06882, 1-(5-((4-(2,4-dimethylphenyl)piperazin-1-yl)methyl)-1-oxoisoindolin-2-yl)dihydropyrimidine-2,4(1H,3H)-dione]
IKZF2 substrate protein remaining % (IKZF2): B (80%< substrate protein remaining % ≤100%) | IKZF3 substrate protein remaining % (IKZF3): B (80%< substrate protein remaining % ≤100%) | CK1α substrate protein remaining % (CK1α): B (80%< substrate protein remaining % ≤100%) | WEE1 substrate protein remaining % (WEE1): A (0% ≤ substrate protein remaining % ≤80%) | GSPT1 substrate protein remaining % (GSPT1): A (0% ≤ substrate protein remaining % ≤80%) | IKZF1 substrate protein remaining % (IKZF1): A (0% ≤ substrate protein remaining % ≤80%)

O=C1CCN(N2C(=O)c3ccc(CN4CCN(C(c5ccccn5)c5ccccn5)CC4)cc3C2=O)C(=O)N1 [GT-06379, 5-((4-(di(pyridin-2-yl)methyl)piperazin-1-yl)methyl)-2-(2,4-dioxotetrahydropyrimidin-1(2H)-yl)isoindoline-1,3-dione]
IKZF2 substrate protein remaining % (IKZF2): A (0% ≤ substrate protein remaining % ≤80%) | IKZF3 substrate protein remaining % (IKZF3): A (0% ≤ substrate protein remaining % ≤80%) | CK1α substrate protein remaining % (CK1α): B (80%< substrate protein remaining % ≤100%) | WEE1 substrate protein remaining % (WEE1): A (0% ≤ substrate protein remaining % ≤80%) | GSPT1 substrate protein remaining % (GSPT1): A (0% ≤ substrate protein remaining % ≤80%) | IKZF1 substrate protein remaining % (IKZF1): B (80%< substrate protein remaining % ≤100%)
